Measured values as given in PubChem BioAssay (NCI).
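1) Cells in 96-well plates. 2) Compound, 48 h, 5 concentrations. 3) Linear interpolation between surrounding doses. 4) Unreached endpoint = highest concentration. The concentration for 50% growth inhibition is given as GI50. TGI: total growth inhibition.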

What was measured:
Assay in all cases: NCI tumour cell line growth inhibition, 48 h
CCRF-CEM leukemia = system: CCRF-CEM leukemia
KM12 colon = system: KM12 colon
HS 578T breast = system: HS 578T breast
HT29 colon = system: HT29 colon
UO-31 renal = system: UO-31 renal
BT-549 breast = system: BT-549 breast
MALME-3M melanoma = system: MALME-3M melanoma
IGROV1 ovarian = system: IGROV1 ovarian
NCI-H522 lung = system: NCI-H522 lung
COLO 205 colon = system: COLO 205 colon
MCF7 breast = system: MCF7 breast
NCI-H226 lung = system: NCI-H226 lung
786-0 renal = system: 786-0 renal
NCI-H23 lung = system: NCI-H23 lung
SF-539 CNS = system: SF-539 CNS
LOX IMVI melanoma = system: LOX IMVI melanoma
SF-295 CNS = system: SF-295 CNS
MOLT-4 leukemia = system: MOLT-4 leukemia
SNB-75 CNS = system: SNB-75 CNS
SK-MEL-28 melanoma = system: SK-MEL-28 melanoma
HOP-62 NSCLC = system: HOP-62 NSCLC
M14 melanoma = system: M14 melanoma
SK-MEL-5 melanoma = system: SK-MEL-5 melanoma
HCT-15 colon = system: HCT-15 colon
SN12C renal = system: SN12C renal
TK-10 renal = system: TK-10 renal
RXF 393 renal = system: RXF 393 renal
ACHN renal = system: ACHN renal

C#Cc1nc(C(=O)NCCCCCCC(=O)NO)cs1
TGI (CCRF-CEM leukemia): 994 nM
GI50 (KM12 colon): 1390 nM
TGI (KM12 colon): 3600 nM
GI50 (HS 578T breast): 718 nM
TGI (HS 578T breast): 4050 nM
GI50 (HT29 colon): 782 nM
TGI (HT29 colon): 2440 nM
GI50 (UO-31 renal): 174 nM
TGI (UO-31 renal): 332 nM
GI50 (BT-549 breast): 1470 nM
TGI (BT-549 breast): 2850 nM
GI50 (MALME-3M melanoma): 314 nM
TGI (MALME-3M melanoma): 1610 nM
GI50 (IGROV1 ovarian): 572 nM
TGI (IGROV1 ovarian): 2150 nM
GI50 (NCI-H522 lung): 168 nM
TGI (NCI-H522 lung): 353 nM
GI50 (COLO 205 colon): 691 nM
TGI (COLO 205 colon): 2000 nM
GI50 (MCF7 breast): 939 nM
TGI (MCF7 breast): 7250 nM
GI50 (NCI-H226 lung): 1740 nM
TGI (NCI-H226 lung): 6490 nM
GI50 (786-0 renal): 294 nM
TGI (786-0 renal): 838 nM
GI50 (NCI-H23 lung): 780 nM
TGI (NCI-H23 lung): 2220 nM
GI50 (SF-539 CNS): 794 nM
TGI (SF-539 CNS): 2240 nM
GI50 (LOX IMVI melanoma): < 14.9 nM
TGI (LOX IMVI melanoma): 53 nM
GI50 (SF-295 CNS): 983 nM
TGI (SF-295 CNS): 2420 nM
GI50 (MOLT-4 leukemia): 294 nM
TGI (MOLT-4 leukemia): 1200 nM
GI50 (SNB-75 CNS): 714 nM
TGI (SNB-75 CNS): 3340 nM
GI50 (SK-MEL-28 melanoma): 1210 nM
TGI (SK-MEL-28 melanoma): 5100 nM
GI50 (HOP-62 NSCLC): 1120 nM
TGI (HOP-62 NSCLC): 3070 nM
GI50 (M14 melanoma): 1220 nM
TGI (M14 melanoma): 4030 nM
GI50 (SK-MEL-5 melanoma): 642 nM
TGI (SK-MEL-5 melanoma): 2180 nM
GI50 (HCT-15 colon): 1470 nM
TGI (HCT-15 colon): 3840 nM
GI50 (SN12C renal): 1620 nM
TGI (SN12C renal): 5250 nM
GI50 (TK-10 renal): 263 nM
TGI (TK-10 renal): 1530 nM
GI50 (RXF 393 renal): 392 nM
TGI (RXF 393 renal): 1390 nM
GI50 (ACHN renal): 897 nM
TGI (ACHN renal): 2190 nM
